Common to all, as to assay: Affinity-purification and mass spectrometry (AP-MS) chemical proteomics, all proteins;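 as to Difference: 200 µM free competitor with 20 µM biotin probe overnight in lysate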
What all share (format): binding

Experiment [1] deals with T1, proteins displaced from immobilized biotin-Cmpd 1 pulldowns (U2OS cell lysate) (Homo sapiens, UniProt O14979).
T1 construct: endogenous in cells; host or cells: U2OS
Conditions: GN=HNRNPDL (A0A087WU03).

Experiment [2] addresses T2, proteins displaced from immobilized biotin-Cmpd 1 pulldowns (U2OS cell lysate) (Homo sapiens, UniProt Q15366).
T2 construct: endogenous in cells; host or cells: U2OS
Conditions: GN=PCBP2 (Q15366).

Experiment [3] concerns the target T3, proteins displaced from immobilized biotin-Cmpd 1 pulldowns (U2OS cell lysate) (Homo sapiens, UniProt Q13601).
T3 construct: endogenous in cells; host or cells: U2OS
Conditions: GN=KRR1 (Q13601).

The target of experiment [4] is T4, proteins displaced from immobilized biotin-Cmpd 1 pulldowns (U2OS cell lysate) (Homo sapiens, UniProt Q13573).
T4 construct: endogenous in cells; host or cells: U2OS
Conditions: GN=SNW1 (Q13573).

Experiment [5] concerns the target T5, proteins displaced from immobilized biotin-Cmpd 1 pulldowns (U2OS cell lysate) (Homo sapiens, UniProt P13639).
T5 construct: endogenous in cells; host or cells: U2OS
To be noted: GN=EEF2 (P13639).

Experiment [6] has as its target T6, proteins displaced from immobilized biotin-Cmpd 1 pulldowns (U2OS cell lysate) (Homo sapiens, UniProt Q04837).
T6 construct: endogenous in cells; host or cells: U2OS
To be noted: GN=SSBP1 (Q04837).

Experiment [7] has as its target T7, proteins displaced from immobilized biotin-Cmpd 1 pulldowns (U2OS cell lysate) (Homo sapiens, UniProt O94925).
T7 construct: endogenous in cells; host or cells: U2OS
Conditions: GN=GLS (O94925).

The target of experiment [8] is T8, proteins displaced from immobilized biotin-Cmpd 1 pulldowns (U2OS cell lysate) (Homo sapiens, UniProt O95478).
T8 construct: endogenous in cells; host or cells: U2OS
To be noted: GN=NSA2 (O95478).

Experiment [9] concerns the target T9, proteins displaced from immobilized biotin-Cmpd 1 pulldowns (U2OS cell lysate) (Homo sapiens, UniProt P52948).
T9 construct: endogenous in cells; host or cells: U2OS
Conditions: GN=NUP98 (P52948).

For experiment [10], the target named is T10, proteins displaced from immobilized biotin-Cmpd 1 pulldowns (U2OS cell lysate) (Homo sapiens, UniProt Q6UWP8).
T10 construct: endogenous in cells; host or cells: U2OS
Conditions: GN=SBSN (Q6UWP8).

“And” between values parts separate entries of the source, which are not always exact repeats. Identical values can stand only once.

T9 sequence (P52948 whole entry): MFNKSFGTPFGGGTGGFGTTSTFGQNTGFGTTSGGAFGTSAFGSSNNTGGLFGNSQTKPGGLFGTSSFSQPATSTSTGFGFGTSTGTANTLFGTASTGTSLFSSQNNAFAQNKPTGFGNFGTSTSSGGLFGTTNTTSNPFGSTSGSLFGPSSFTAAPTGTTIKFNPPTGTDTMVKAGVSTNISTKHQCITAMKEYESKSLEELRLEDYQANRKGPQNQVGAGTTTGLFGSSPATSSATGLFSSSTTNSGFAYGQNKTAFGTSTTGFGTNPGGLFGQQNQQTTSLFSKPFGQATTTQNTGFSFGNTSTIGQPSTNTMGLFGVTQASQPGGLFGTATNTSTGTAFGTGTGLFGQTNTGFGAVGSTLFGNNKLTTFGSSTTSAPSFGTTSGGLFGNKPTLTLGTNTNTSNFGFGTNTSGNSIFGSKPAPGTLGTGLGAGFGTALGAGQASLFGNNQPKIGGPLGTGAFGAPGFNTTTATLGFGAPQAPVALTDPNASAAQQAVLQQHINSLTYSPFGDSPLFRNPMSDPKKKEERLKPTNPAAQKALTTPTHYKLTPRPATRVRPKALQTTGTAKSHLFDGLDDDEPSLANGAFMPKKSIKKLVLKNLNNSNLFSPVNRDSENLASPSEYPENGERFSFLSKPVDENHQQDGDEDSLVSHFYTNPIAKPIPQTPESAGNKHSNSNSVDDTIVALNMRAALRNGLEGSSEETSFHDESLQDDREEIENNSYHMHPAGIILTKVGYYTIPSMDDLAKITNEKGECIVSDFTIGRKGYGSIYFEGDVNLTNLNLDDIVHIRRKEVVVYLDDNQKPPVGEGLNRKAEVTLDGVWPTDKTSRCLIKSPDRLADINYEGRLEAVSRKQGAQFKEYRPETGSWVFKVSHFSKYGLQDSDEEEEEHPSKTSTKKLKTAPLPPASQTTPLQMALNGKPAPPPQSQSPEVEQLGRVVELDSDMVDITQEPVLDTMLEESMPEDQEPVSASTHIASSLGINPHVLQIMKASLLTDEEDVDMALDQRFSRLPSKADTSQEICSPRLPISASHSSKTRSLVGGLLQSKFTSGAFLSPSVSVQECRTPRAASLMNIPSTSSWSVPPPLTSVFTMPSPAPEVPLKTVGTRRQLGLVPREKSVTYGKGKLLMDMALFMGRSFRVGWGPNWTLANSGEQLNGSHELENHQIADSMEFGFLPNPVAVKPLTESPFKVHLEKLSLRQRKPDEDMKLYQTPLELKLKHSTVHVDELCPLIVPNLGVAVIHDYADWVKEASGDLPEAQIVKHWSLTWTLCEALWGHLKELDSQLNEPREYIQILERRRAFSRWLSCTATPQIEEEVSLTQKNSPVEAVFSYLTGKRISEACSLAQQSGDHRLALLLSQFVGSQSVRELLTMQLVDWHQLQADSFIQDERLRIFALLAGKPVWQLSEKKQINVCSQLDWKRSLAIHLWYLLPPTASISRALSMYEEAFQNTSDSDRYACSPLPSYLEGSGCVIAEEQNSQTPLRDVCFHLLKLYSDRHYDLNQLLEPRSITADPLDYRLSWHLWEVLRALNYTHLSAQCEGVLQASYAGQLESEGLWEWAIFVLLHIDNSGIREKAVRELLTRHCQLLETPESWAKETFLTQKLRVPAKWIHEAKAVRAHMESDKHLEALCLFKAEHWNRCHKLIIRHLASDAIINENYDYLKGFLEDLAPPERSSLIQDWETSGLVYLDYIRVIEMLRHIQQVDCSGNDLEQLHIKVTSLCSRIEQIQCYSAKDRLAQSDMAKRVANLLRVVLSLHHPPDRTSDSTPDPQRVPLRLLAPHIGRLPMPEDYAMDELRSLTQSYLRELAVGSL
T10 sequence (Q6UWP8 26-590): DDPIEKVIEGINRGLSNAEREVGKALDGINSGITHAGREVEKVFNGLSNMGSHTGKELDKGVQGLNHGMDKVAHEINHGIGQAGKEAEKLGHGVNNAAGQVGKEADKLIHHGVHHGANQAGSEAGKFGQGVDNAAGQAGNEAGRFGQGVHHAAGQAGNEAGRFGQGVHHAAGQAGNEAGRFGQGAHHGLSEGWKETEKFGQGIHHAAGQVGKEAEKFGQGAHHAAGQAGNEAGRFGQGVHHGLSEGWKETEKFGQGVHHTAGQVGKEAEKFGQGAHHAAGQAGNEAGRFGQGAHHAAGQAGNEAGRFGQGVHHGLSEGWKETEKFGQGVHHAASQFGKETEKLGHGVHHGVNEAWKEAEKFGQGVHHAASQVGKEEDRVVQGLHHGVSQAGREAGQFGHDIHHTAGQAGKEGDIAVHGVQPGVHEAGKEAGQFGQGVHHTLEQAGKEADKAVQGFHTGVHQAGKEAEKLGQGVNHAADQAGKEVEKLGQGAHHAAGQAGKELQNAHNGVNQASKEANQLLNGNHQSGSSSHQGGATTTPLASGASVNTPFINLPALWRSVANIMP
T4 sequence (Q13573 whole entry): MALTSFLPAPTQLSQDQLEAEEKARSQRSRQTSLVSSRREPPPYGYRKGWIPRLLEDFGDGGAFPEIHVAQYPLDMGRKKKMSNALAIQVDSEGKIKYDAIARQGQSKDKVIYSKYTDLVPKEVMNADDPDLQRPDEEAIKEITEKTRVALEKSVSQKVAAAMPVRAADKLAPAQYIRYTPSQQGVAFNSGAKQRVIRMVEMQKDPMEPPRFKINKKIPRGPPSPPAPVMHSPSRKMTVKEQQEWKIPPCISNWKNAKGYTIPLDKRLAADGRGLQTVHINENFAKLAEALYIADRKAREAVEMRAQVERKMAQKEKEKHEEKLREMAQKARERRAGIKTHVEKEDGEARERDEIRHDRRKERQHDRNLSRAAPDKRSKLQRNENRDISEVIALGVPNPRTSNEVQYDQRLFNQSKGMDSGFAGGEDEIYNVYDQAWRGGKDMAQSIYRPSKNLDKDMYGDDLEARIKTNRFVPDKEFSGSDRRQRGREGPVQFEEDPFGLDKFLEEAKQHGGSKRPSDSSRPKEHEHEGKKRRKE
T1 sequence (O14979 whole entry): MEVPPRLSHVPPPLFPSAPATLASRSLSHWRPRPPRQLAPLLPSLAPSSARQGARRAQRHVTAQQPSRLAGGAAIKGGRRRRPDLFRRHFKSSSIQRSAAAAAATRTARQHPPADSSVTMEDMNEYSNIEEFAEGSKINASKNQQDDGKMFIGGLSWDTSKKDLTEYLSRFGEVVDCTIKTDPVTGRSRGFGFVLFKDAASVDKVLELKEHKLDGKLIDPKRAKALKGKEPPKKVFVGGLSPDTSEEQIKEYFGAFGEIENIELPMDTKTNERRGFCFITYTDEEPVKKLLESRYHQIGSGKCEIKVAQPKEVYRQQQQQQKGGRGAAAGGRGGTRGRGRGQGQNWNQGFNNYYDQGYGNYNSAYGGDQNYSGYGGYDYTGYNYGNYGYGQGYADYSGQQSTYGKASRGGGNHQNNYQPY
T7 sequence (O94925 55-669): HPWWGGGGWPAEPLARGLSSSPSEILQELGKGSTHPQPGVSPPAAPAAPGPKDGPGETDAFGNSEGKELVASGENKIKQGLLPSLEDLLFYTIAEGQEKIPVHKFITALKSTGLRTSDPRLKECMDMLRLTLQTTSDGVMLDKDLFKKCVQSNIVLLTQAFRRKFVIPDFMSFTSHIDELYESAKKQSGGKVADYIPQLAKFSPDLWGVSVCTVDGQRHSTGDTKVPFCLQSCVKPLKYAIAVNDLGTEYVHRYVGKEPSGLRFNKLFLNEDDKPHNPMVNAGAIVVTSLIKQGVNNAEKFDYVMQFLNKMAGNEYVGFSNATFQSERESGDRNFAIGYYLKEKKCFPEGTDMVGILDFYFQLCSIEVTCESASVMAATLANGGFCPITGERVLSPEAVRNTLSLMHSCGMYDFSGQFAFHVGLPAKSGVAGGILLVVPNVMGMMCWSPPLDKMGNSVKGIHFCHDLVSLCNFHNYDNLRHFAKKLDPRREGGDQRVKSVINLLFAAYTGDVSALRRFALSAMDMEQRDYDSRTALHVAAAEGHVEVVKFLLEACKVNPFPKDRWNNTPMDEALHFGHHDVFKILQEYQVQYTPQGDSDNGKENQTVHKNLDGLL
T6 sequence (Q04837 17-148): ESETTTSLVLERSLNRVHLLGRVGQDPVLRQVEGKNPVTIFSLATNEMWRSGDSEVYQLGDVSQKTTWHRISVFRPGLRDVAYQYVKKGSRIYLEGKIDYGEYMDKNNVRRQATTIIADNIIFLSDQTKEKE
T2 sequence (Q15366 whole entry): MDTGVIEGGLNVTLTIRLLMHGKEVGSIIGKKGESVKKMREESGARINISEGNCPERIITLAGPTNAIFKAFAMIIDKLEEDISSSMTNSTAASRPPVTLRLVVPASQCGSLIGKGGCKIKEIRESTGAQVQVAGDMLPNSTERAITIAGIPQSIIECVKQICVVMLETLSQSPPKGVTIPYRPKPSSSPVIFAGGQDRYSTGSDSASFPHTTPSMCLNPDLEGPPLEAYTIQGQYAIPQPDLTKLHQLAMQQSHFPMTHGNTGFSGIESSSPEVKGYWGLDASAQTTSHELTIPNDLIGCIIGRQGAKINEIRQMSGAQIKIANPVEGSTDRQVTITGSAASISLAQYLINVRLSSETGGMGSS
T3 sequence (Q13601 whole entry): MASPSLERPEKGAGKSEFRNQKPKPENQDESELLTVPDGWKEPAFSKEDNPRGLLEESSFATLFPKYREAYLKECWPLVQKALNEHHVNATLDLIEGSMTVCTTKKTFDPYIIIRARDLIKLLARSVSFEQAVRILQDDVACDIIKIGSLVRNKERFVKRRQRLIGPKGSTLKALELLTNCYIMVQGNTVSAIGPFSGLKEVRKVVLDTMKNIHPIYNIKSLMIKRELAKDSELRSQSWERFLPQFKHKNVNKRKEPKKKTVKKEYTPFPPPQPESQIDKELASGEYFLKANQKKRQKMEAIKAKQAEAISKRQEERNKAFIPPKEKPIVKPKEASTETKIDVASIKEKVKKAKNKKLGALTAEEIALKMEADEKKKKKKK

Turning to `Cn1c2c(c(=N)c3c1CCC3)CCC2` [Compound 1, 4-methyl-2,3,4,5,6,7-hexahydrodicyclopenta[b,e]pyridin-8(1H)-imine], the Difference in [1] (Cmpd minus DMSO, -LOG(P-value) 0.798528) is given as 1.553; in [2] (Cmpd minus DMSO, -LOG(P-value) 0.939549), -2.733; in experiment [3] (Cmpd minus DMSO, -LOG(P-value) 0.80089), 1.298; in experiment [4] (Cmpd minus DMSO, -LOG(P-value) 1.77748), 2.177; in experiment [5] (Cmpd minus DMSO, -LOG(P-value) 1.71036) it was -0.7791; in experiment [6] (Cmpd minus DMSO, -LOG(P-value) 1.29916) it was 1.094. In addition, the Difference is 1.117 in experiment [7] (Cmpd minus DMSO, -LOG(P-value) 0.714958); 1.456 in experiment [8] (Cmpd minus DMSO, -LOG(P-value) 0.709566); 1.019 in experiment [9] (Cmpd minus DMSO, -LOG(P-value) 0.703266); -1.912 in [10] (Cmpd minus DMSO, -LOG(P-value) 0.819941). The “iBAQ Cmpd” value in experiment [1] (replicates 1-3) was 20.8595 and 22.7108 and 22.2667; in experiment [2] (replicates 1-3) it was 15.8606 and 15.1154 and 18.8903; in experiment [3] (replicates 1-3) it was 17.9419 and 17.334 and 17.0379; in experiment [4] (replicates 1-3), 17.1233 and 17.0397 and 16.2301; in experiment [5] (replicates 1-3), 17.772 and 17.7165 and 17.939; in experiment [6] (replicates 1-3), 21.1032 and 19.9004 and 20.5342. Further, the “iBAQ Cmpd” value in experiment [7] (replicates 1-3) is 18.1344 and 18.3969 and 16.5727; in experiment [8] (replicates 1-3), 18.8418 and 18.1506 and 17.9444; in [9] (replicates 1-3), 16.2576 and 15.2783 and 15.0872; in [10] (replicates 1-3), 15.6356 and 17.305 and 16.0247.

Source of the values: PMC9481570, “A small molecule antagonist of SMN disrupts the interaction between SMN and RNAP II” (Nature Communications, 2022).
